Source: US20240072809A1, “ASGPR-BINDING COMPOUNDS FOR THE DEGRADATION OF EXTRACELLULAR PROTEINS” (Avilar Therapeutics, Inc., priority 2020, published 2024)
Bridge positions count the residues as written; N and C are the ends. Peptide text beside a SMILES is read from it. * marks the point of attachment. X1 = O=C(CCOCC(COCCC(=O)NCCOCCOCCOCCOC[C@@]12CO[C@@H](O1)[C@H](NC(=O)C(F)(F)F)[C@@H](O)[C@H]2O)(COCCC(=O)NCCOCCOCCOCCOC[C@@]12CO[C@@H](O1)[C@H](NC(=O)C(F)(F)F)[C@@H](O)[C@H]2O)NC(=O)CCO[C@H]1C[C@H](OCCC(=O)*)C1)NCCOCCOCCOCCOC[C@@]12CO[C@@H](O1)[C@H](NC(=O)C(F)(F)F)[C@@H](O)[C@H]2O; X3 = CO[C@@H]1O[C@H](COCCOCCOCCOCCNC(=O)CCOCC(COCCC(=O)NCCOCCOCCOCCOC[C@H]2O[C@@H](OC)[C@H](NC(C)=O)[C@@H](O)[C@H]2O)(COCCC(=O)NCCOCCOCCOCCOC[C@H]2O[C@@H](OC)[C@H](NC(C)=O)[C@@H](O)[C@H]2O)NC(=O)COCCOCCOCC(=O)*)[C@H](O)[C@H](O)[C@H]1NC(C)=O

target: ASGPR (Homo sapiens (Human), UniProt P07306); experiment: Affinity to ASGPR measured by surface plasmon resonance (SPR); format: binding; conditions: ASGPR ligands with linker, Table 5; read-out: ASGPR_SPR Binding KD
Sequence (P07306 whole entry): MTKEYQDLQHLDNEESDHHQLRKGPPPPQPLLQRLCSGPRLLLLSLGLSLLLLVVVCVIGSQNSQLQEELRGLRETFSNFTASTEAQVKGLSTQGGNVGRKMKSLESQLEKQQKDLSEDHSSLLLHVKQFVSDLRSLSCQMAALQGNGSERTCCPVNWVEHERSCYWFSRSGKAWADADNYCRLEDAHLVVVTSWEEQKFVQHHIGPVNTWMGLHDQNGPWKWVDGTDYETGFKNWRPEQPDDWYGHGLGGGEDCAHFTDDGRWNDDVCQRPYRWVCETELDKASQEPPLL

| Compound | Kd |
| --- | --- |
| O=[N+]([O-])c1ccc(NCCOCCOCCOCCOC[C@H]2OC[C@H](Nc3nccc(C(F)(F)F)n3)[C@@H](O)[C@H]2O)c([N+](=O)[O-])c1 [Compound 35, (2R,3R,4R,5S)-2-(13-((2,4-dinitrophenyl)amino)-2,5,8,11-tetraoxatridecyl)-5-((4-(trifluoromethyl)pyrimidin-2-yl)amino)tetrahydro-2H-pyran-3,4-diol] | < 100 µM |
| CC(C)C[C@@H]1NC(=O)[C@@H](NC(=O)[C@@H](NC(=O)[C@H](CCC(N)=O)NC(=O)[C@H](Cc2cnc[nH]2)NC(=O)CCO[C@H]2C[C@H](OCCC(=O)NC(COCCC(=O)NCCOCCOCCOCCOC[C@@]34CO[C@@H](O3)[C@H](NC(=O)C(F)(F)F)[C@@H](O)[C@H]4O)(COCCC(=O)NCCOCCOCCOCCOC[C@@]34CO[C@@H](O3)[C@H](NC(=O)C(F)(F)F)[C@@H](O)[C@H]4O)COCCC(=O)NCCOCCOCCOCCOC[C@@]34CO[C@@H](O3)[C@H](NC(=O)C(F)(F)F)[C@@H](O)[C@H]4O)C2)C(C)C)CSSC[C@@H](C(=O)N[C@@H](Cc2ccccc2)C(=O)N[C@@H](CO)C(=O)N[C@H](C(N)=O)[C@@H](C)O)NC(=O)[C@H](C(C)C)NC(=O)[C@@H]2CCCN2C(=O)[C@H](CCCNC(=N)N)NC(=O)CNC(=O)[C@H](CCCNC(=N)N)NC(=O)[C@H](Cc2ccc(O)cc2)NC(=O)[C@H](CO)NC1=O [Compound 31] (X1-HQVCLSYRGRPVCFST-NH2; disulfide 4-13) | < 100 µM |

same assay, conditions: ASGPR ligands, Table 2; Biacore 8K, 25° C., steady state fit; read-out: SPR Binding External Calculation: KD

| Kd | Compound |
| --- | --- |
| > 1000 µM | CC1C(Oc2ccccc2)O[C@H](CO)[C@H](O)[C@@H]1O (stereo in doubt) [Compound A192, (2R,3R,4R,5R,6S)-2-(hydroxymethyl)-5-methyl-6-phenoxytetrahydro-2H-pyran-3,4-diol] |
| 500 to 1000 µM | OC[C@H]1OC[C@@H](c2ccc(F)cc2)[C@@H](O)[C@H]1O [Compound A164, (2R,3R,4R,5R)-5-(4-fluorophenyl)-2-(hydroxymethyl)tetrahydro-2H-pyran-3,4-diol] |
| > 1000 µM | OC[C@H]1OC[C@@H](CN2CCOCC2)[C@@H](O)[C@H]1O [Compound A209, (2R,3R,4R,5R)-2-(hydroxymethyl)-5-(morpholinomethyl)tetrahydro-2H-pyran-3,4-diol] |
| < 100 µM | CO[C@@H]1O[C@H](COS(=O)(=O)c2ccc(C)cc2)[C@H](O)[C@H](O)[C@H]1NC(C)=O [Compound A286] |

| Compound | Kd |
| --- | --- |
| CC(=O)NC[C@@H]1CO[C@H](CO)[C@H](O)[C@@H]1O [Compound A183, N-(((3R,4R,5R,6R)-4,5-dihydroxy-6-(hydroxymethyl)tetrahydro-2H-pyran-3-yl)methyl)acetamide] | 100 to 500 µM |
| CO[C@@H]1O[C@H](CO)[C@H](O)[C@H](O)[C@H]1Nc1nc(=O)[nH]c(=O)[nH]1 [Compound A112, 6-(((2R,3R,4R,5R,6R)-4,5-dihydroxy-6-(hydroxymethyl)-2-methoxytetrahydro-2H-pyran-3-yl)amino)-1,3,5-triazine-2,4(1H,3H)-dione] | < 100 µM |

same assay, conditions: ASGPR ligands, Table 4; class symbols; read-out: ASGPR_PR Binding KD

| Kd | Compound |
| --- | --- |
| < 100 µM | CO[C@@H]1O[C@H](CO)[C@H](O)[C@H](O)[C@H]1Nc1ncc(F)cc1F [Compound A383, (2R,3R,4R,5R,6R)-5-((3,5-difluoropyridin-2-yl)amino)-2-(hydroxymethyl)-6-methoxytetrahydro-2H-pyran-3,4-diol] |
| < 100 µM | COc1cc(C#N)cc(N[C@H]2CO[C@H](CO)[C@H](O)[C@@H]2O)n1 [Compound A364, 2-(((3S,4R,5R,6R)-4,5-dihydroxy-6-(hydroxymethyl)tetrahydro-2H-pyran-3-yl)amino)-6-methoxyisonicotinonitrile] |
| < 100 µM | OC[C@@]12CO[C@@H](O1)[C@H](Nc1cncc(C(F)(F)F)n1)[C@@H](O)[C@H]2O [Compound A427] |
| < 100 µM | COc1cc(N[C@H]2[C@H]3OC[C@](CO)(O3)[C@H](O)[C@@H]2O)nc(C#N)n1 [Compound A426] |
| < 100 µM | C=CCO[C@H]1O[C@H](CO)[C@H](O)[C@H](O)[C@H]1NC(=O)C(F)(F)F [Compound A404, N-((2S,3R,4R,5R,6R)-2-(allyloxy)-4,5-dihydroxy-6-(hydroxymethyl)tetrahydro-2H-pyran-3-yl)-2,2,2-trifluoroacetamide] |
| < 100 µM | C=CCO[C@H]1O[C@H](CO)[C@H](O)[C@H](O)[C@H]1Nc1nc(Cl)ns1 [Compound A405, (2R,3R,4R,5R,6S)-6-(allyloxy)-5-((3-chloro-1,2,4-thiadiazol-5-yl)amino)-2-(hydroxymethyl)tetrahydro-2H-pyran-3,4-diol] |
| < 100 µM | CO[C@H]1O[C@H](CO)[C@H](O)[C@H](O)[C@H]1Nc1cccc(C(F)(F)F)n1 [Compound A381] |

Continued, compound first:

| Compound | Kd |
| --- | --- |
| CSc1ccnc(N[C@H]2CO[C@H](CO)[C@H](O)[C@@H]2O)n1 [Compound A336] | < 100 µM |
| COc1nc(N[C@H]2CO[C@H](CO)[C@H](O)[C@@H]2O)nc(OC)n1 [Compound A325] | < 100 µM |
| (2R,3R,4R,5R)-2-(hydroxymethyl)-5-((4-methylpiperazin-1-yl)methyl)tetrahydro-2H-pyran-3,4-diol [Compound A212] | 100 to 500 µM |
| Cc1cc(C(F)(F)F)nc(N[C@H]2CO[C@H](CO)[C@H](O)[C@@H]2O)n1 [Compound A334] | < 100 µM |
| CSc1nc(Cl)cc(N[C@H]2CO[C@H](CO)[C@H](O)[C@@H]2O)n1 [Compound A331, (2R,3R,4R,5S)-5-((6-chloro-2-(methylthio)pyrimidin-4-yl)amino)-2-(hydroxymethyl)tetrahydro-2H-pyran-3,4-diol] | < 100 µM |
| O=C1OCCN1[C@@H]1CO[C@H](CO)[C@H](O)[C@@H]1O [Compound A223, 3-((3R,4R,5R,6R)-4,5-dihydroxy-6-(hydroxymethyl)tetrahydro-2H-pyran-3-yl)oxazolidin-2-one] | < 100 µM |
| COc1cc(C#N)nc(N[C@H]2CO[C@H](CO)[C@H](O)[C@@H]2O)n1 [Compound A346, 2-(((3S,4R,5R,6R)-4,5-dihydroxy-6-(hydroxymethyl)tetrahydro-2H-pyran-3-yl)amino)-6-methoxypyrimidine-4-carbonitrile] | < 100 µM |
| OC[C@H]1OC[C@H](Nc2nc(Cl)nn3cccc23)[C@@H](O)[C@H]1O [Compound A304] | < 100 µM |
| OC[C@H]1OC[C@H](Nc2nccc(C(F)F)n2)[C@@H](O)[C@H]1O [Compound A335] | < 100 µM |
| OC[C@H]1OC[C@H](Nc2nccc(Cl)c2C(F)(F)F)[C@@H](O)[C@H]1O [Compound A307] | < 100 µM |

same assay, conditions: ASGPR ligands, Table 4; numeric lower bounds; read-out: ASGPR_PR Binding KD

| Kd | Compound |
| --- | --- |
| > 20 µM | OC[C@H]1OC[C@@H](NC2=NCCC(C(F)(F)F)=N2)[C@@H](O)[C@H]1O [Compound A389] |
| > 10 µM | CS(=O)(=O)c1nc(Cl)cc(N[C@H]2CO[C@H](CO)[C@H](O)[C@@H]2O)n1 [Compound A370, (2R,3R,4R,5S)-5-((6-chloro-2-(methylsulfonyl)pyrimidin-4-yl)amino)-2-(hydroxymethyl)tetrahydro-2H-pyran-3,4-diol] |
| > 20 µM | COc1cc(C(N)=O)cc(N[C@H]2CO[C@H](CO)[C@H](O)[C@@H]2O)n1 [Compound A365, 2-(((3S,4R,5R,6R)-4,5-dihydroxy-6-(hydroxymethyl)tetrahydro-2H-pyran-3-yl)amino)-6-methoxyisonicotinamide] |
| > 20 µM | OC[C@H]1OC[C@@H](Nc2ncc(Cl)cc2F)[C@@H](O)[C@H]1O [Compound A388] |
| > 20 µM | CO[C@@H]1O[C@H](CO)[C@H](O)[C@H](O)[C@H]1Nc1nc(C#N)cs1 [Compound A386] |

Continued, compound first:

| Compound | Kd |
| --- | --- |
| OC[C@H]1OC=C(C(F)(F)F)[C@@H](O)[C@H]1O [Compound A221-2, (2R,3R,4R)-2-(hydroxymethyl)-5-(trifluoromethyl)-3,4-dihydro-2H-pyran-3,4-diol] | > 200 µM |
| OC[C@H]1OC[C@H](Nc2ccc(Cl)nn2)[C@@H](O)[C@H]1O [Compound A316] | > 20 µM |
| N#Cc1cc(N[C@H]2CO[C@H](CO)[C@H](O)[C@@H]2O)nc(C#N)n1 [Compound A348, 6-(((3S,4R,5R,6R)-4,5-dihydroxy-6-(hydroxymethyl)tetrahydro-2H-pyran-3-yl)amino)pyrimidine-2,4-dicarbonitrile] | > 20 µM |
| OC[C@H]1OC[C@H](Nc2cc(C(F)(F)F)cnn2)[C@@H](O)[C@H]1O [Compound A308] | > 20 µM |
| CSc1cc(N[C@H]2CO[C@H](CO)[C@H](O)[C@@H]2O)nc(C#N)n1 [Compound A351, 4-(((3S,4R,5R,6R)-4,5-dihydroxy-6-(hydroxymethyl)tetrahydro-2H-pyran-3-yl)amino)-6-(methylthio)pyrimidine-2-carbonitrile] | > 20 µM |

same assay, conditions: extracellular protein degrading compounds, Table 3; read-out: SPR Binding External Calculation: KD (uM) ASGPR

| Kd | Compound |
| --- | --- |
| < 100 µM | CC(C)C[C@H]1NC(=O)[C@@H](CC(=O)[C@@H](NC(=O)[C@H](CCC(N)=O)NC(=O)[C@H](Cc2cnc[nH]2)NC(=O)CCOCCOCCOCCOCCNC(=O)CCCc2cn(CCCC(=O)NCCOCc3cnn(CCOCCOCCOCCO[C@@]45CO[C@@H](O4)[C@H](NC(=O)C(F)(F)F)[C@@H](O)[C@H]5O)c3)nn2)C(C)C)CSSC[C@@H](C(=O)N[C@@H](Cc2ccccc2)C(=O)N[C@@H](CO)C(=O)NC(C=O)[C@@H](C)O)NC(=O)[C@H](C(C)C)NC(=O)[C@@H]2CCCN2C(=O)[C@H](CCCNC(=N)N)NC(=O)CNC(=O)[C@@H](CCCNC(=N)N)NC(=O)[C@H](Cc2ccc(O)cc2)NC(=O)[C@H](CO)CC1=O (stereo partly shown) [Compound 26] |

same assay, conditions: read-out: ASGPR_SPR Binding KD

| Compound | Kd |
| --- | --- |
| CO[C@@H]1O[C@H](COCCOCCOCCOCCNC(=O)CCOCC(COCCC(=O)NCCOCCOCCOCCOC[C@H]2O[C@@H](OC)[C@H](NC(C)=O)[C@@H](O)[C@H]2O)(COCCC(=O)NCCOCCOCCOCCOC[C@H]2O[C@@H](OC)[C@H](NC(C)=O)[C@@H](O)[C@H]2O)NC(=O)COCCOCCOCC(=O)N[C@@H](Cc2cnc[nH]2)C(=O)N[C@@H](CCC(N)=O)C(=O)N[C@H](C(=O)N[C@H]2CSSC[C@@H](C(=O)N[C@@H](Cc3ccccc3)C(=O)N[C@@H](CO)C(=O)N[C@H](C(N)=O)[C@@H](C)O)NC(=O)[C@H](C(C)C)NC(=O)[C@@H]3CCCN3C(=O)[C@H](CCCNC(=N)N)NC(=O)CNC(=O)[C@H](CCCNC(=N)N)NC(=O)[C@H](Cc3ccc(O)cc3)NC(=O)[C@H](CO)NC(=O)[C@H](CC(C)C)NC2=O)C(C)C)[C@H](O)[C@H](O)[C@H]1NC(C)=O [Compound 30] (X3-HQVCLSYRGRPVCFST-NH2; disulfide 4-13) | < 100 µM |
